Measured values from patent publication EP3381898A1, “SYMMETRICAL TRIS-ARYL-AMIDE DERIVATIVES AND THEIR USE AS ANTI-HEPARANASE” (priority 2017, dated 2018).

How the values were obtained:
[1] = test system: HT1080 (human fibrosarcoma); assay: Cell adhesion assay on matrigel coated wells; assay type: cell-based; conditions: 2.5 µM, percent of adhesion with respect to the control (100%)
Experimental: (§1) Cell surface, non-integrin molecules such as heparan sulfate proteoglycans (HSPGs) may be involved in the regulation of early adhesive stages of cell-ECM interactions. A cell adhesion assay has been employed to determine if the newly designed heparanase inhibitors were able to interfere with adhesion properties of cancer cells.
(§2) HT1080 (human fibrosarcoma) and U87MG (human glioblastoma astrocytoma) cells were treated for 18-20 h with test compounds in complete medium supplemented with 10% FCS. Then cells were collected, washed in complete medium, and added to matrigel coated wells in triplicate, at previously identified optimal seeding density, and incubated at 37 °C in complete medium for times ranging from 15 minutes to 4h, according to the cell line. After incubation, the wells were washed three times with serum-free medium and the remaining firmly attached cells were stained with crystal-violet 0.1%. Optical density was measured at 560 nm by Victor 3 (Perkin-Elmer) plate analyzer. Each experiment was repeated three times.
(§3) Table 3. […] In Invasion assay, data were expressed as the percent invasion (range) with respect to cell migration through uncoated insert membrane. In Adhesion assay, data were expressed as the percent of adhesion with respect to the control (100%).

[2] = test system: U87MG (human glioblastoma astrocytoma); assay: Cell adhesion assay on matrigel coated wells; assay type: cell-based; conditions: 2.5 µM, percent of adhesion with respect to the control (100%)
Experimental: as §1, §2, §3

FGF-1 = assay: Real-Time Quantitative PCR of mRNA gene expression in HT1080 cells; assay type: cell-based, human; conditions: 24 h, 2.5 uM, mean value
Experimental: (§4) To evaluate the effect of heparanase inhibitors on the tumor transcription of genes encoding for proangiogenic factors, such as FGF1/2, VEGF, MMP-9, HSPE-1, the relative mRNA levels were analyzed by quantitative Real-Time Quantitative PCR.
(§5) To perform the assay, HT1080 (human fibrosarcoma) cells were cultured in complete medium containing 10%FCS (fetal calf serum). Cells were plated in 24-well plates and treated at fixed concentration (i.e., highest non-toxic concentration) of test compounds. After 24 h, cells were detached, collected and total RNA extracted by RNeasy Mini Kit (QIAGEN). Following reverse transcription step, FGF1/2, VEGF, MMP-9, HSPE-1 mRNA levels, were quantified by qPCR using the advanced Universal SYBR Green Supermix (Bio Rad) and ABI PRISM 7900HT Thermal Cycler System (Perkin Elmer), according to the manufacturer's instructions. Appropriate no-RT and non-template controls were included in each 96-well PCR reaction, and dissociation analysis was performed at the end of each run to confirm the specificity of the reaction. Relative levels of RNA were calculated using the ddCt method. Standard curve and sample data were run in duplicate. In Table 4 a mean value is reported.

MMP-9 = assay: as above; assay type: cell-based, human; conditions: 24 h, 2.5 uM, mean value
Experimental: as §4, §5

VEGF = assay: as above; assay type: cell-based, human; conditions: 24 h, 2.5 uM, mean value
Experimental: as §4, §5

HPSE-1 = assay: as above; assay type: cell-based, human; conditions: 24 h, 2.5 uM, mean value
Experimental: as §4, §5

FGF-2 = assay: as above; assay type: cell-based, human; conditions: 24 h, 2.5 uM, mean value
Experimental: as §4, §5

[3] = test system: genes encoding for proangiogenic factors; assay: Real-Time Quantitative PCR in HT1080 cells, summary statement for all factors; assay type: cell-based, human; conditions: 2.5 µM, result in words
Experimental: as §4
as §5, with “reported. […]” for “reported.”

Cn1cc(NC(=O)c2ccc(Oc3ccc(C(=O)Nc4cc(C(=O)Nc5cccc(CC(=O)N[C@@H](Cc6ccccc6)C(=O)O)c5)n(C)c4)cc3)cc2)cc1C(=O)Nc1cccc(CC(=O)N[C@@H](Cc2ccccc2)C(=O)O)c1 [Compound 36e, (2S,2'S)-2,2'-((2,2'-(((4,4'-((4,4'-Oxybis(benzoyl))bis(azanediyl))bis(1-methyl-1H-pyrrole-2,2'-carbonyl))bis(azanediyl))bis(3,1-phenylene))bis(acetyl))bis(azanediyl))bis(3-phenylpropanoic acid)]
Adhesion Assay (%) HT1080 [1]: 91.2% | Adhesion Assay (%) U87MG [2]: 73.0% | Gene Expression (% mRNA vs. control) FGF-1 (FGF-1): ~ 62% | Gene Expression (% mRNA vs. control) MMP-9 (MMP-9): ~ 50% | Gene Expression (% mRNA vs. control) VEGF (VEGF): ~ 51% | Gene Expression (% mRNA vs. control) HPSE-1 (HPSE-1): ~ 88% | Gene Expression (% mRNA vs. control) FGF-2 (FGF-2): ~ 64% | inhibition of genes expression encoding for proangiogenic factors [3]: significant inhibition
